Drawing on PubChem BioAssay AID328 (DTP/NCI, 2004), this text covers T/C for 19 molecules.

“And” between values parts separate entries of the source, which are not always exact repeats. Identical values can stand only once. Inconclusive results and toxic doses are left out.

This assay deals with BDF1 mice, P388 leukemia ip, median survival T/C. The assay can be described thus: NCI In Vivo Anticancer Drug Screen. Data for tumor model P388 Leukemia (intraperitoneal) in B6D2F1 (BDF1) mice. The note with it: endpoint: median survival time, higher = longer survival. An outline of the steps: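 Mice carrying the transplantable tumour receive compound or vehicle. Survival is followed in each arm, and the treated measure is divided by the vehicle measure.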

The mark [1] stands for this setting: dose: 100.0 mg/kg/injection, schedule: Q04DX003 (ip), vehicle: Klucel (hydroxypropylcellulose) (HPC).
[2] abbreviates: dose: 200.0 mg/kg/injection, schedule: Q04DX003 (ip), vehicle: Klucel (hydroxypropylcellulose) (HPC).
The mark [3] stands for this setting: dose: 400.0 mg/kg/injection, schedule: Q04DX003 (ip), vehicle: Klucel (hydroxypropylcellulose) (HPC).
[4] abbreviates: dose: 25.0 mg/kg/injection, schedule: Q01DX009 (ip), vehicle: saline with Tween-80.
[5] abbreviates: dose: 50.0 mg/kg/injection, schedule: Q01DX009 (ip), vehicle: saline with Tween-80.
Where [6] appears, read: dose: 100.0 mg/kg/injection, schedule: Q01DX009 (ip), vehicle: saline with Tween-80.
The mark [7] stands for this setting: dose: 25.0 mg/kg/injection, schedule: Q01DX009 (ip), vehicle: saline.
Setting [8] is: dose: 50.0 mg/kg/injection, schedule: Q04DX003 (ip), vehicle: saline.
The mark [9] stands for this setting: dose: 100.0 mg/kg/injection, schedule: Q04DX003 (ip), vehicle: saline.
Setting [10] is: dose: 100.0 mg/kg/injection, schedule: Q01DX009 (ip), vehicle: saline.
The mark [11] stands for this setting: dose: 200.0 mg/kg/injection, schedule: Q01DX009 (ip), vehicle: saline.
The mark [12] stands for this setting: dose: 400.0 mg/kg/injection, schedule: Q01DX009 (ip), vehicle: saline.
[13] abbreviates: dose: 200.0 mg/kg/injection, schedule: Q04DX003 (ip), vehicle: saline.
[14] abbreviates: dose: 400.0 mg/kg/injection, schedule: Q04DX003 (ip), vehicle: saline.
[15] abbreviates: dose: 200.0 mg/kg/injection, schedule: Q01DX009 (ip), vehicle: saline with Tween-80.
[16] abbreviates: dose: 10.0 mg/kg/injection, schedule: Q01DX009 (ip), vehicle: Klucel (hydroxypropylcellulose) (HPC).
Where [17] appears, read: dose: 20.0 mg/kg/injection, schedule: Q01DX009 (ip), vehicle: Klucel (hydroxypropylcellulose) (HPC).
Setting [18] is: dose: 40.0 mg/kg/injection, schedule: Q01DX009 (ip), vehicle: Klucel (hydroxypropylcellulose) (HPC).

With `Nc1ncnc2c1ncn2C(C=O)OC(C=O)CO` (centres undefined), the T/C runs as follows: (dose: 0.88 mg/kg/injection, schedule: Q01DX009 (ip), vehicle: saline) 106 % of control; (dose: 1.0 mg/kg/injection, schedule: Q01DX009 (ip), vehicle: carboxymethylcellulose (CMC)) 119 % of control; (dose: 1.33 mg/kg/injection, schedule: Q01DX009 (ip), vehicle: saline) 116 % of control; (dose: 2.0 mg/kg/injection, schedule: Q01DX009 (ip), vehicle: saline) 119 % of control; (dose: 2.5 mg/kg/injection, schedule: Q04DX003 (ip), vehicle: carboxymethylcellulose (CMC)) 113 % of control; (dose: 3.3 mg/kg/injection, schedule: Q01DX009 (ip), vehicle: saline) 171 % of control. For the same molecule, the T/C reads like this: (dose: 4.0 mg/kg/injection, schedule: Q01DX009 (ip), vehicle: carboxymethylcellulose (CMC)) 158 % of control; (dose: 5.0 mg/kg/injection, schedule: Q01DX009 (ip), vehicle: saline) 261 % of control; (dose: 5.0 mg/kg/injection, schedule: Q04DX003 (ip), vehicle: carboxymethylcellulose (CMC)) 122 % of control; (dose: 5.56 mg/kg/injection, schedule: Q01DX009 (ip), vehicle: saline) 150 % of control; (dose: 7.5 mg/kg/injection, schedule: Q01DX009 (ip), vehicle: saline) 152 % of control; (dose: 8.0 mg/kg/injection, schedule: Q01DX009 (ip), vehicle: carboxymethylcellulose (CMC)) 97 % of control. The T/C (dose: 8.33 mg/kg/injection, schedule: Q01DX009 (ip), vehicle: saline) was 161 % of control; the T/C (dose: 10.0 mg/kg/injection, schedule: Q04DX003 (ip), vehicle: carboxymethylcellulose (CMC)) was 153 % of control; the T/C (dose: 12.5 mg/kg/injection, schedule: Q01DX009 (ip), vehicle: saline) was 209 % of control; the T/C (dose: 16.0 mg/kg/injection, schedule: Q01DX009 (ip), vehicle: carboxymethylcellulose (CMC)) is 184 % of control; the T/C (dose: 18.7 mg/kg/injection, schedule: Q01DX009 (ip), vehicle: saline) was 152 % of control; the T/C (dose: 20.0 mg/kg/injection, schedule: Q04DX003 (ip), vehicle: carboxymethylcellulose (CMC)) is 160 % of control. Moreover, the T/C (dose: 40.0 mg/kg/injection, schedule: Q04DX003 (ip), vehicle: carboxymethylcellulose (CMC)) is 188 % of control and the T/C (dose: 80.0 mg/kg/injection, schedule: Q04DX003 (ip), vehicle: carboxymethylcellulose (CMC)) was 179 % of control.

Regarding `CSc1ccccc1C=O`, the T/C by setting is: under setting [1], 95 % of control; under setting [2], 100 % of control; under setting [3], 112 % of control.

In the case of `[O-][n+]1ccc(Cl)c2ccsc21`, the T/C (dose: 50.0 mg/kg/injection, schedule: Q04DX003 (ip), vehicle: saline with Tween-80) was 95 % of control; the T/C (dose: 100.0 mg/kg/injection, schedule: Q04DX003 (ip), vehicle: saline with Tween-80) is 95 % of control; the T/C (dose: 200.0 mg/kg/injection, schedule: Q04DX003 (ip), vehicle: saline with Tween-80) is 90 % of control and 104 % of control; the T/C (dose: 400.0 mg/kg/injection, schedule: Q04DX003 (ip), vehicle: saline with Tween-80) is 86 % of control.

In the case of `Nc1nc2c(ccc3ccccc32)s1`, the T/C was 117 % of control under setting [4], 117 % of control under setting [5] and 122 % of control under setting [6].

Regarding `CCCCN(C)c1ncnc2[nH]ncc12`, the T/C runs as follows: under setting [7], 100 % of control; (dose: 25.0 mg/kg/injection, schedule: Q04DX003 (ip), vehicle: saline) 95 % of control; (dose: 50.0 mg/kg/injection, schedule: Q01DX009 (ip), vehicle: saline) 109 % of control; under setting [8], 95 % of control; under setting [9], 91 % of control.

Turning to `CCN1CCC2(CC1)COCc1ccccc12`, the T/C reads like this: (dose: 50.0 mg/kg/injection, schedule: Q04DX002 (ip), vehicle: saline with Tween-80) 107 % of control; (dose: 100.0 mg/kg/injection, schedule: Q04DX002 (ip), vehicle: saline with Tween-80) 91 % of control.

Regarding `CCOC(=O)CCN1CC(C)OC(C)C1` (centres undefined), the T/C by setting is: under setting [10], 100 % of control; under setting [11], 109 % of control; under setting [12], 100 % of control.

Turning to `CC(=O)Nc1cc(C)no1`, the T/C is 90 % of control under setting [10]; 109 % of control under setting [9]; 95 % of control under setting [11]; 109 % of control under setting [13]; 100 % of control under setting [12]; 104 % of control under setting [14].

For the molecule `O=[N+]([O-])c1ccc(C(F)(F)F)cc1`, the T/C is 109 % of control (dose: 25.0 mg/kg/injection, schedule: Q01DX009 (ip), vehicle: other); 104 % of control (dose: 50.0 mg/kg/injection, schedule: Q01DX009 (ip), vehicle: other); 95 % of control (dose: 50.0 mg/kg/injection, schedule: Q04DX003 (ip), vehicle: other); 113 % of control (dose: 100.0 mg/kg/injection, schedule: Q01DX009 (ip), vehicle: other); 100 % of control (dose: 100.0 mg/kg/injection, schedule: Q04DX003 (ip), vehicle: other); 100 % of control (dose: 200.0 mg/kg/injection, schedule: Q04DX003 (ip), vehicle: other).

As to `CC(Br)C(=O)NCC(=O)NCC(=O)O` (centres undefined), the T/C is, setting by setting: under setting [10], 108 % of control; under setting [9], 108 % of control; under setting [11], 91 % of control; under setting [13], 91 % of control; under setting [14], 87 % of control.

For the molecule `O=C(NCCCl)Nc1cccc2cc3ccccc3cc12`, the T/C reads like this: under setting [1], 100 % of control; under setting [2], 95 % of control; under setting [3], 90 % of control.

With `C1O[C@@H]1[C@H]1CO1`, the T/C runs as follows: under setting [7], 150 % of control; (dose: 37.5 mg/kg/injection, schedule: Q01DX009 (ip), vehicle: saline) 186 % of control.

Take `CSc1cccc(NC(=O)Oc2ccc([N+](=O)[O-])cc2Cl)c1`: the T/C is 93 % of control (dose: 12.5 mg/kg/injection, schedule: Q01DX009 (ip), vehicle: DMSO) and 89 % of control (dose: 50.0 mg/kg/injection, schedule: Q01DX009 (ip), vehicle: DMSO).

As to `CC(C)CC(NC(=O)CN)C(=O)O` (centres undefined), the T/C under setting [4] was 98 % of control; the T/C under setting [5] was 99 % of control; the T/C under setting [6] is 102 % of control; the T/C under setting [15] was 111 % of control; the T/C under setting [11] is 118 % of control; the T/C under setting [12] is 96 % of control.

As for `CCOC(=O)c1cnc2c(cnn2CC)c1NN=C(C)C`, the T/C was 122 % of control under setting [8] and 111 % of control under setting [13].

Regarding `Cc1cc2[nH]c(=O)c(=O)[nH]c2cc1C`, the T/C reads like this: under setting [16], 109 % of control; under setting [17], 109 % of control; under setting [18], 100 % of control; (dose: 75.0 mg/kg/injection, schedule: Q01DX009 (ip), vehicle: Klucel (hydroxypropylcellulose) (HPC)) 86 % of control.

Turning to `N#C/C(=C\c1ccncc1)c1ccccc1`, the T/C reads like this: (dose: 12.5 mg/kg/injection, schedule: Q01DX009 (ip), vehicle: saline with Tween-80) 92 % of control; under setting [5], 98 % of control; under setting [6], 112 % of control; under setting [15], 98 % of control.

Take `Cc1c(Cl)c(Cl)c(NS(=O)(=O)c2ccccc2)c(NS(=O)(=O)c2ccccc2)c1Cl`: the T/C is 100 % of control (dose: 100.0 mg/kg/injection, schedule: Q01DX009 (ip), vehicle: Klucel (hydroxypropylcellulose) (HPC)); 90 % of control under setting [1]; 90 % of control (dose: 200.0 mg/kg/injection, schedule: Q01DX009 (ip), vehicle: Klucel (hydroxypropylcellulose) (HPC)); 104 % of control under setting [2]; 95 % of control (dose: 400.0 mg/kg/injection, schedule: Q01DX009 (ip), vehicle: Klucel (hydroxypropylcellulose) (HPC)); 100 % of control under setting [3].

For `CC#CC#C/C=C1\OC2(CCCCO2)C(OC(C)=O)C1OC(C)=O` (centres undefined), the T/C by setting is: under setting [16], 98 % of control; under setting [17], 98 % of control; under setting [18], 115 % of control.
